Results on 1 compound are retold here after patent US20130164325A1, “CERAMIDE-LIKE GLYCOLIPID-ASSOCIATED BACTERIAL VACCINES AND USES THEREOF” (Albert Einstein College of Medicine of Yeshiva University, priority 2010, published 2013).

For this assay, the system named is mouse splenocytes. In words: Activation of mouse splenocytes with glycolipid-treated BMDCs, IFNγ production. Format: cell-based. Conditions: free glycolipid, compared to vehicle control (FIG. 5B).

As to `CCCCCCCCCCCCCCCCCCCCCCCCCC(=O)N[C@@H](CO[C@H]1O[C@H](CO)[C@H](O)[C@H](O)[C@H]1O)[C@H](O)[C@H](O)CCCCCCCCCCCCCC` [KRN7000, (2S,3S,4R)-1-O-(α-D-galactopyranosyl)-N-hexacosanoyl-2-amino-1,3,4-octadecanetriol], the IFNγ production result was “induced IFNγ production”.
